Reference: patent US20210353579A1, “HIGH PENETRATION COMPOSITIONS AND USES THEREOF” (Techfields Pharma Co., Ltd., priority 2006, published 2021)
Converted amounts (≈) assume the structure as drawn.

Tests used:
[1] = Plasma levels after transdermal administration to hairless mice; format: in vivo; details: for t, time to peak plasma level after parent compound: parent compound administered (time when taken orally); for Peak plasma concentration after parent compound: parent compound administered, hairless mice
Protocol: Tested compounds (20% solution or suspension in 1 mL isopropanol) are administered transdermally to the skin of intact hairless mice. The plasma levels of the parent compounds are determined by HPLC.

mice = test: Analgesic activity, acetic acid writhing; format: in vivo; details: 30 min before acetic acid
Protocol: The prodrug compounds are administered either transdermally or orally. The parent compounds are administered orally. The number of writhing that occurred when mice are administered the acetic acid solution are counted, and the rate of inhibition based on the control group which was not pretreated with any test compounds is calculated. […] The A group is the control group.

rats = test: Antipyretic activity, E. coli suspension as pyrogen; format: in vivo; details: in °C (unit assumed)
Protocol: Rats are administered with sterilized E. coli suspension as a pyrogen. Each group of rats are administered with a prodrug compounds or parent compounds at a dosage specified below. The prodrug compounds are administered either orally or transdermally. The parent compounds are administered orally.

human skin tissue = details: human, 20 %, pH 7.4
in vivo = details: rat
Protocol: The acute toxicity of the prodrug compounds and parent compounds are measured by LD50 of rat.

[2] = Solubility in water / aqueous solubility of HPPs and parent drugs; details: water
[3] = Mus musculus, po, 50 mg/kg orally, read-out: % (rate of writhing inhibition)
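Throughout, for LD50: acute toxicity in rats expressed as LD50, determined for both prodrugs and their parent compounds.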

Row | Structure (SMILES) | t, time to peak plasma level after parent compound [1] [h] | Peak plasma concentration after parent compound [1] [mg/L] | No. of Writhing (mice; 50 mg/kg orally) | inhibition at 50 mg/kg (mice; [3]) [%] | In vitro penetration rate (apparent flux), parent compounds (human skin tissue) [μg/cm^2/h] | LD50 (in vivo) [mg/kg] | solubility [2] [µg/mL] | other results
1 | O=C(O)c1cc(-c2ccc(F)cc2F)ccc1O [Diflunisal, 5-(2,4-difluorophenyl) salicylic acid, reference compound] | 1 to 2 | 0.2 | 18.1 | 48 | <1 | 500 | 50 (≈ 200 µM) | No. of Writhing (mice; 100 mg/kg orally): 13.2; inhibition at 100 mg/kg (mice; Mus musculus, po, 100 mg/kg orally, read-out: % (rate of writhing inhibition)): 62%; body temperature, t = 0 min (rats; 100 mg/kg orally): 37.25 ± 0.06; body temperature, t = 90 min (rats; 100 mg/kg orally): 36.81 ± 0.05; body temperature, t = 180 min (rats; 100 mg/kg orally): 36.82 ± 0.08; body temperature, t = 270 min (rats; 100 mg/kg orally): 36.78 ± 0.07; body temperature, t = 0 min (rats; 150 mg/kg orally): 37.35 ± 0.09; body temperature, t = 90 min (rats; 150 mg/kg orally): 36.61 ± 0.07; body temperature, t = 180 min (rats; 150 mg/kg orally): 36.56 ± 0.06; body temperature, t = 270 min (rats; 150 mg/kg orally): 36.57 ± 0.05
2 | CC(C(=O)O)c1cccc(Oc2ccccc2)c1 (stereo not shown) [Fenoprofen, 2-(3-phenoxyphenyl) propionic acid, reference compound] | 1 to 2 | 1 | 13.2 | 62 | <1 | 800 | 100 (≈ 413 µM) | body temperature, t = 0 min (rats; 50 mg/kg orally): 37.22 ± 0.07; body temperature, t = 90 min (rats; 50 mg/kg orally): 36.82 ± 0.06; body temperature, t = 180 min (rats; 50 mg/kg orally): 36.80 ± 0.05; body temperature, t = 270 min (rats; 50 mg/kg orally): 36.77 ± 0.08
